Reference: patent publication US20130058922A1 (priority 2009, published 2013)
Where “and” joins values, the source holds several entries; their conditions need not be identical. Equal values may be shown once. Read-outs that look alike come from different tables or passages of the source.

Columns and labels:
[1] = Clinical observation of patients during and after choline infusion therapy (vital parameters, tolerability, condition)
[2] = system: circulating tumour cells (CTCs)
Experimental: (§1) Depending on the dose, the infusion therapy was applied for 3-5 hours.

[3] = system: leukocytes / dysfunctional leukocyte precursors
Experimental: as §1

[4] = system: circulating tumour cells (CTCs) in the blood; conditions: in vitro; tumour cells in blood of 13 patients (breast, colon, prostate, pancreas cancer); MAINTRAC
Source text: This method allows the detection of smallest amounts of tumour cells in blood and other body fluids (Pachmann K., Clement J. H., Schneider C.-P., Willen B., Camara O., Pachmann U., Hoeffken K., Standardized quantification of circulating peripheral tumour cells from lung and breast cancer. Clin. Chem. Lab-Med., 2005, 43; 617-627).

[5] = Gastric CA, one i.v. choline therapy for 3 to 5 hours, MainTrac
[6] = Histiocytoma, one i.v. choline therapy for 3 to 5 hours, MainTrac
[7] = Prostate CA, one i.v. choline therapy for 3 to 5 hours, MainTrac
[8] = mean over all tumour types of Table 1, one i.v. choline therapy for 3 to 5 hours, MainTrac
[9] = mean of Table 2 leukaemia measurements, one i.v. choline therapy for 3 to 5 hours

C[N+](C)(C)CCO [choline]
changes in vital parameters (RR, pulse, SO2, ECG, temperature) ([1]; 9 tumour patients, during and subsequent to i.v. infusion therapy of 3-5 hours): no patient showed relevant changes in the vital parameters
tolerability of the infusion therapy ([1]; 9 tumour patients, i.v. infusion for 3-5 hours): very well tolerated
side effects ([1]; in some cases, on the following day, in general only during few hours, depending on the dose): nausea and increased temperature
CTCs after therapy ([2]; Gastric CA, after one i.v. choline therapy for 3 to 5 hours, MainTrac): 1.75 million tumour cells
CTCs After − before Difference (Δ) [2, 5]: −12.25 million tumour cells
CTCs After − before Δ % before [2, 5]: −87.00%
CTCs after therapy ([2]; Histiocytoma, after one i.v. choline therapy for 3 to 5 hours, MainTrac): 65.00 million tumour cells
CTCs After − before Difference (Δ) [2, 6]: −307.50 million tumour cells
CTCs After − before Δ % before [2, 6]: −82.00%
CTCs after therapy ([2]; Pancreas CA, after one i.v. choline therapy for 3 to 5 hours, MainTrac): 3.00 million tumour cells and 2.75 million tumour cells
CTCs after therapy ([2]; Prostate CA, after one i.v. choline therapy for 3 to 5 hours, MainTrac): 8.75 million tumour cells
CTCs After − before Difference (Δ) [2, 7]: −3.75 million tumour cells
CTCs After − before Δ % before [2, 7]: −30.00%
After − before Δ% before (after 4 weeks), mean values ([2]; Table 3 mean of leukaemia patient leukocytes and breast cancer patient CTCs, 4 weeks later): −40.00%
After − before Δ% before, mean values ([2]; Table 3 mean of leukaemia patient leukocytes and breast cancer patient CTCs, directly after therapy): −30.00%
MainTrac (CTCs), After 4 weeks value ([2]; breast cancer patient, after another 4 weeks without therapy): 5.25 million tumour cells
MainTrac (CTCs), After − before Δ% before (after 4 weeks) ([2]; breast cancer patient, after another 4 weeks without therapy, relative to initial value): −72.00%
CTCs after therapy, mean value ([2]; mean over all tumour types of Table 1, after one i.v. choline therapy for 3 to 5 hours, MainTrac): 9.75 million tumour cells
CTCs After − before Difference (Δ), mean value [2, 8]: −37 million tumour cells and −37.00 million tumour cells
CTCs After − before Δ % before, mean value [2, 8]: −54.6%
Leukocytes, After 4 weeks value ([3]; leukaemia patient blood, 4 weeks after one i.v. choline therapy): 281.60
Leukocytes, After − before Δ% before (after 4 weeks) ([3]; leukaemia patient blood, 4 weeks after one i.v. choline therapy, compared to the initial value): −8%
Leukocytes after therapy, mean values ([3]; mean of Table 2 leukaemia measurements, after one i.v. choline therapy for 3 to 5 hours): 228.53
Leukocytes After − before Difference (Δ), mean values [3, 9]: −25.77
Leukocytes After − before Δ % before, mean values [3, 9]: −10.00%
cytosensitivity to choline [4]: up to 95%
